Measured values from US20250034150A1, “BTK INHIBITORS” (BIOGEN MA INC., priority 2021, published 2025).
pIC50: −log10 of the molar value. Read-outs that look alike come from different tables or passages of the source.

Key:
BTK = molecular target: T1, BTK (Homo sapiens, UniProt Q06187); assay: In Vitro BTK Kinase Assay: Btk-PolyGAT-LS Assay; format: biochemical; settings: active BTK enzyme 0.25 nM, polyGAT 100 nM, 30 minutes, TRF readout; read-out: In Vitro BTK Kinase Assay IC50 Score
T1 construct: purchased Upstate 14-552
Experimental: The purpose of the BTK in vitro assay is to determine compound potency against BTK through the measurement of IC50. Compound inhibition is measured after monitoring the amount of phosphorylation of a fluorescein-labeled polyGAT peptide (Invitrogen PV3611) in the presence of active BTK enzyme (Upstate 14-552), ATP, and inhibitor. The BTK kinase reaction was done in a black 96 well plate (costar 3694). For a typical assay, a 24 μL aliquot of a ATP/peptide master mix (final concentration; ATP […], polyGAT 100 nM) in kinase buffer (10 mM Tris-HCl pH 7.5, 10 mM MgCl2, 200 μM […], 5 mM DTT, 0.01% Triton X-100, and 0.2 mg/ml casein) is added to each well. Next, […] of a 4-fold, 40× compound titration in 100% DMSO solvent is added, followed by adding 15 μL of BTK enzyme mix in 1× kinase buffer (with a final concentration of 0.25 nM). The assay is incubated for 30 minutes before being stopped with 28 μL of a 50 mM EDTA solution. Aliquots (5 uL) of the kinase reaction are transferred to a low volume white 384 well plate (Coming 3674), and 5 μL of a 2× detection buffer (Invitrogen PV3574, with 4 nM Tb—PY20 antibody, Invitrogen PV3552) is added. The plate is covered and incubated for 45 minutes at room temperature. Time resolved fluorescence (TRF) on Molecular Devices M5 (332 nm excitation; 488 nm emission; 518 nm fluorescein emission) is measured. IC50 values are calculated using a four parameter fit with 100% enzyme activity determined from the DMSO control and 0% activity from the EDTA control.

[1] = tested on: CD69 expression on CD19+ B cells in human whole blood; assay: In Vitro whole blood CD69 Assay; format: cell-based; settings: B-cell, read-out: In Vitro HWB CD69 Assay IC50 Score
Experimental: Human heparinized venous blood from health donors was aliquoted into 96-well plate and “spiked” with serial dilutions of formula I compounds in DMSO or with DMSO without drug. The final concentration of DMSO in all wells was 0.1%. The plate was incubated at 37° C. for 30 min. Drug-containing samples were stimulated with 0.1 μg/mL mouse anti-human IgD-dextran (1A62) or 20 μg/mL polyclonal rabbit F(ab′)2 anti-human IgD. Phosphate-buffered saline (PBS) was added to the negative control unstimulated sample and the plates were incubated overnight (18 to 22 hours) at 37° C. Cells were stained with fluorochrome-conjugated anti-CD19 and anti-CD69 antibodies. Lyse/fix solution was used to remove red blood cells by hypotonic lysis and to fix the remaining cells, which were then analyzed by flow cytometry. CD19+ B cells were gated and analyzed for CD69 expression.

[2] = human heparinized whole blood, anti-human IgD stimulation overnight, CD19+ B cells, flow cytometry

T1 sequence (Q06187 whole entry): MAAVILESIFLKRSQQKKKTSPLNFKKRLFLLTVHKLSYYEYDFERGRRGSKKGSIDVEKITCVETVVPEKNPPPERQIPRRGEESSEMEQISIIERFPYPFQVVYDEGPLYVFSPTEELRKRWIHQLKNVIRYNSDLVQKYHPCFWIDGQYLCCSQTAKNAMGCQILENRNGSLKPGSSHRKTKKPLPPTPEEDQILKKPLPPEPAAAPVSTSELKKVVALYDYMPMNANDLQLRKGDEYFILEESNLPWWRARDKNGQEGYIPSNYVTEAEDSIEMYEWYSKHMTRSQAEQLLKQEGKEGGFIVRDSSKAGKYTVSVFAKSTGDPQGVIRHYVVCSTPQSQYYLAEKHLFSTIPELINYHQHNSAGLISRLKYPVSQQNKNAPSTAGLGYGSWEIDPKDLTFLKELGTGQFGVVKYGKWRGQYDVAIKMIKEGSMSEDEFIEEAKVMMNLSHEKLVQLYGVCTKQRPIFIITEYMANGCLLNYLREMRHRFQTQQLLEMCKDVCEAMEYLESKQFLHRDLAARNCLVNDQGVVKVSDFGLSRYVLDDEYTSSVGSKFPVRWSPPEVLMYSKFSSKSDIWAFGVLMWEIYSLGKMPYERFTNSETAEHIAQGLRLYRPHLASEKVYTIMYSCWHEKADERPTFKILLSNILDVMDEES

pIC50 (BTK)	pIC50 [1, 2]	SMILES	pIC50 ([1]; Homo sapiens)
8.00 to 9.00	5.00 to 6.00	Cc1cc(-c2nc(-c3cnn(C)c3)cn3nccc23)ccc1CN1CCN(CC(C)C)CC1=O [Example 30, 4-isobutyl-1-(2-methyl-4-(6-(1-methyl-1H-pyrazol-4-yl)pyrazolo[1,5-a]pyrazin-4-yl)benzyl)piperazin-2-one]	–
6.00 to 8.00	5.00 to 6.00	CC(C)(C)n1nnc(C(=O)NCc2ccc(-c3nc(N4CCOCC4)cn4nccc34)cc2)n1 [Example 25, 2-(tert-butyl)-N-(4-(6-morpholinopyrazolo[1,5-a]pyrazin-4-yl)benzyl)-2H-tetrazole-5-carboxamide]	–
> 9.00	> 6.00	Cc1cc(-c2nc(-c3cnn(C)c3)cn3nccc23)ccc1CNC(=O)c1cnn(C(C)(C)C)c1 [Example 17, 1-(tert-butyl)-N-(2-methyl-4-(6-(1-methyl-1H-pyrazol-4-yl)pyrazolo[1,5-a]pyrazin-4-yl)benzyl)-1H-pyrazole-4-carboxamide]	–
6.00 to 8.00	5.00 to 6.00	Cn1cc(-c2cn3nccc3c(N3CC[C@H](CNC(=O)c4noc(C5(C)CC5)n4)[C@H](F)C3)n2)cn1 [Example 154, N-(((3S,4R)-3-fluoro-1-(6-(1-methyl-1H-pyrazol-4-yl)pyrazolo[1,5-a]pyrazin-4-yl)piperidin-4-yl)methyl)-5-(1-methylcyclopropyl)-1,2,4-oxadiazole-3-carboxamide]	–
> 9.00	> 6.00	Cn1cc(-c2cn3nccc3c(-c3ccc(CNC(=O)c4noc(C5(C)CC5)n4)c(F)c3)n2)cn1 [Example 8, N-(2-fluoro-4-(6-(1-methyl-1H-pyrazol-4-yl)pyrazolo[1,5-a]pyrazin-4-yl)benzyl)-5-(1-methylcyclopropyl)-1,2,4-oxadiazole-3-carboxamide]	–
> 9.00	> 6.00	Cn1cc(-c2cn3nccc3c(-c3ccc(CNC(=O)c4noc(C5(C)CC5)n4)cc3)n2)cn1 [Example 5, N-(4-(6-(1-methyl-1H-pyrazol-4-yl)pyrazolo[1,5-a]pyrazin-4-yl)benzyl)-5-(1-methylcyclopropyl)-1,2,4-oxadiazole-3-carboxamide]	–
> 9.00	> 6.00	Cn1cc(-c2cn3nccc3c(-c3ccc(CNC(=O)c4noc(C(C)(C)C)n4)c(F)c3F)n2)cn1 [Example 88, 5-(tert-butyl)-N-(2,3-difluoro-4-(6-(1-methyl-1H-pyrazol-4-yl)pyrazolo[1,5-a]pyrazin-4-yl)benzyl)-1,2,4-oxadiazole-3-carboxamide]	–
8.00 to 9.00	5.00 to 6.00	Cn1cc(-c2cn3nccc3c(N3CC[C@H](CNC(=O)c4cn(C(C)(C)C)nn4)[C@H](F)C3)n2)cn1 [Example 152, 1-(tert-butyl)-N-((3-fluoro-1-(6-(1-methyl-1H-pyrazol-4-yl)pyrazolo[1,5-a]pyrazin-4-yl)piperidin-4-yl)methyl)-1H-1,2,3-triazole-4-carboxamide]	–
8.00 to 9.00	5.00 to 6.00	Cn1cc(-c2cn3nccc3c(N3CCC(CNC(=O)c4noc(C5(C)CC5)n4)CC3)n2)cn1 [Example 137, N-((1-(6-(1-methyl-1H-pyrazol-4-yl)pyrazolo[1,5-a]pyrazin-4-yl)piperidin-4-yl)methyl)-5-(1-methylcyclopropyl)-1,2,4-oxadiazole-3-carboxamide]	–
6.00 to 8.00	5.00 to 6.00	CC(C)(C)c1noc(C(=O)NCc2ccc(-c3nc(N4CCOCC4)cn4nccc34)cc2)n1 [Example 24, 3-(tert-butyl)-N-(4-(6-morpholinopyrazolo[1,5-a]pyrazin-4-yl)benzyl)-1,2,4-oxadiazole-5-carboxamide]	–
8.00 to 9.00	5.00 to 6.00	Cn1cc(-c2cn3nccc3c(-c3ccc(CN4CCN(CC(C)(C)C)CC4=O)c(F)c3)n2)cn1 [Example 35, 1-(2-fluoro-4-(6-(1-methyl-1H-pyrazol-4-yl)pyrazolo[1,5-a]pyrazin-4-yl)benzyl)-4-neopentylpiperazin-2-one]	–
> 9.00	> 6.00	Cn1cc(-c2cn3nccc3c(-c3ccc(CNC(=O)c4nnn(C(C)(C)C)n4)cc3F)n2)cn1 [Example 114, 2-(tert-butyl)-N-(3-fluoro-4-(6-(1-methyl-1H-pyrazol-4-yl)pyrazolo[1,5-a]pyrazin-4-yl)benzyl)-2H-tetrazole-5-carboxamide]	–
8.00 to 9.00	> 6.00	Cc1cc(-c2nc(-c3cnn(C)c3)cn3nccc23)ccc1CNC(=O)c1ccn(C(C)(C)C)n1 [Example 18, 1-(tert-butyl)-N-(2-methyl-4-(6-(1-methyl-1H-pyrazol-4-yl)pyrazolo[1,5-a]pyrazin-4-yl)benzyl)-1H-pyrazole-3-carboxamide]	–
8.00 to 9.00	> 6.00	COCCOc1cn2nccc2c(-c2ccc(CNC(=O)c3cn(C(C)(C)C)nn3)c(C)c2)n1 [Example 122, 1-(tert-butyl)-N-(4-(6-(2-methoxyethoxy)pyrazolo[1,5-a]pyrazin-4-yl)-2-methylbenzyl)-1H-1,2,3-triazole-4-carboxamide]	–
6.00 to 8.00	5.00 to 6.00	Cn1cc(-c2cc3nccn3c(-c3ccc(CNC(=O)c4ccn(C(C)(C)C)n4)cc3)n2)cn1 [Example 56, 1-(tert-butyl)-N-(4-(7-(1-methyl-1H-pyrazol-4-yl)imidazo[1,2-c]pyrimidin-5-yl)benzyl)-1H-pyrazole-3-carboxamide]	–
> 9.00	> 6.00	Cc1c(CNC(=O)c2noc(C(C)(C)C)n2)ccc(-c2nc(-c3cnn(C)c3)cn3nccc23)c1F [Example 81, 5-(tert-butyl)-N-(3-fluoro-2-methyl-4-(6-(1-methyl-1H-pyrazol-4-yl)pyrazolo[1,5-a]pyrazin-4-yl)benzyl)-1,2,4-oxadiazole-3-carboxamide]	–
> 9.00	> 6.00	Cn1cc(-c2cn3nccc3c(-c3ccc(CNC(=O)c4nc(C(C)(C)C)no4)cc3F)n2)cn1 [Example 108, 3-(tert-butyl)-N-(3-fluoro-4-(6-(1-methyl-1H-pyrazol-4-yl)pyrazolo[1,5-a]pyrazin-4-yl)benzyl)-1,2,4-oxadiazole-5-carboxamide]	–
8.00 to 9.00	5.00 to 6.00	Cn1cc(-c2cn3nccc3c(-c3ccc(CNC(=O)c4nnn(C(C)(C)C)n4)nc3)n2)cn1 [Example 115, 2-(tert-butyl)-N-((5-(6-(1-methyl-1H-pyrazol-4-yl)pyrazolo[1,5-a]pyrazin-4-yl)pyridin-2-yl)methyl)-2H-tetrazole-5-carboxamide]	–
> 9.00	> 6.00	Cn1cc(-c2cn3nccc3c(-c3ccc(CNC(=O)c4nnc(C(C)(C)C)o4)c(C(F)F)c3)n2)cn1 [Example 102, 5-(tert-butyl)-N-(2-(difluoromethyl)-4-(6-(1-methyl-1H-pyrazol-4-yl)pyrazolo[1,5-a]pyrazin-4-yl)benzyl)-1,3,4-oxadiazole-2-carboxamide]	–

SMILES	pIC50 (BTK)	pIC50 [1, 2]	pIC50 ([1]; Homo sapiens)
Cc1cc(-c2nc(-c3cnn(C)c3)cn3nccc23)ccc1CNC(=O)c1nnc(C(C)(C)C)o1 [Example 14, 5-(tert-butyl)-N-(2-methyl-4-(6-(1-methyl-1H-pyrazol-4-yl)pyrazolo[1,5-a]pyrazin-4-yl)benzyl)-1,3,4-oxadiazole-2-carboxamide]	> 9.00	–	> 6.00
Cn1cc(-c2cc(-c3ccc(CNC(=O)c4noc(C5(C)CC5)n4)c(F)c3)c3ccnn3c2)cn1 [Example 67, N-(2-fluoro-4-(6-(1-methyl-1H-pyrazol-4-yl)pyrazolo[1,5-a]pyridin-4-yl)benzyl)-5-(1-methylcyclopropyl)-1,2,4-oxadiazole-3-carboxamide]	> 9.00	–	> 6.00
